Test results taken from DBAASP.
In brackets after ≈: the same amount, converted by molar mass.

Tests used:
Test in all cases: ≥ marks a high value that may be exact or a test limit, other limits are often not marked, values filed in µg/mL are converted to µM
[1] = test system: Salmonella enterica subsp. enterica serovar Enteritidis ATCC 13076
[2] = test system: Bacillus cereus ATCC 11778
[3] = test system: Staphylococcus aureus ATCC 29213
[4] = test system: Pseudomonas aeruginosa ATCC 27853
[5] = test system: Serratia marcescens ATCC 21202
[6] = test system: Klebsiella pneumoniae ATCC 700603
[7] = test system: Streptococcus pyogenes ATCC 19615
[8] = test system: Escherichia coli ATCC 25922
[9] = test system: Streptococcus sanguinis ATCC 10556
[10] = test system: Streptococcus gordonii ATCC 10558
[11] = test system: Streptococcus oralis ATCC 9811
[12] = test system: Acinetobacter baumannii ATCC 15308
Klebsiella pneumoniae = test system: Klebsiella pneumoniae
Citrobacter sp. = test system: Citrobacter sp.
Staphylococcus aureus = test system: Staphylococcus aureus
[13] = test system: Staphylococcus aureus ATCC 25923
Streptococcus pneumoniae = test system: Streptococcus pneumoniae
Enterobacter cloacae = test system: Enterobacter cloacae
[14] = test system: Pseudomonas aeruginosa ATCC 15442
[15] = test system: Escherichia coli ATCC 23506
[16] = test system: Candida glabrata ATCC 15126
[17] = test system: Staphylococcus aureus ATCC 9144
[18] = test system: Streptococcus pneumoniae ATCC 49619
[19] = test system: Aspergillus niger ATCC 16404
[20] = test system: Candida albicans ATCC 10231
[21] = test system: Pseudomonas aeruginosa ATCC 9027
[22] = test system: Enterococcus faecalis PCM 2673
Enterococcus faecalis = test system: Enterococcus faecalis
Staphylococcus aureus MR = test system: Staphylococcus aureus MR
[23] = test system: Staphylococcus epidermidis KCTC 1917
[24] = test system: Escherichia coli KCTC 1682
Enterococcus faecalis VR = test system: Enterococcus faecalis VR
[25] = test system: Staphylococcus aureus KCTC 1621
Enterococcus faecium VR = test system: Enterococcus faecium VR
[26] = test system: Bacillus subtilis KCTC 3068
[27] = test system: Salmonella typhimurium KCTC 1926
Enterococcus faecium = test system: Enterococcus faecium
[28] = test system: Pseudomonas aeruginosa KCTC 1637
[29] = test system: Candida tropicalis CGMCC 2.1975
[30] = test system: Bacillus subtilis CMCC 63501
[31] = test system: Staphylococcus epidermidis ATCC 12228
[32] = test system: Candida albicans CGMCC 2.2086
Candida albicans CA2761 = test system: Candida albicans CA2761
[33] = test system: Salmonella enterica subsp. enterica serovar Typhimurium C77-31
[34] = test system: Candida krusei CGMCC 2.1857
Escherichia coli UB1005 = test system: Escherichia coli UB1005
Escherichia coli EC183 = test system: Escherichia coli EC183

With `CC[C@H](C)[C@H](NC(=O)[C@H](CC(=O)O)NC(=O)[C@H](CCSC)NC(=O)[C@H](CC(C)C)NC(=O)CN)C(=O)N[C@@H](Cc1ccccc1)C(=O)N[C@@H](CCCCN)C(=O)N[C@H](C(=O)N[C@@H](C)C(=O)N[C@H](C(=O)N[C@@H](CC(N)=O)C(=O)N[C@@H](CCCCN)C(=O)N[C@@H](CC(C)C)C(=O)N[C@@H](CC(C)C)C(=O)N[C@@H](C)C(=O)N[C@@H](C)C(=O)NCC(=O)N[C@@H](CCSC)C(=O)N[C@@H](CC(N)=O)C(=O)N[C@@H](CCCCN)C(=O)N1CCC[C@H]1C(=O)N[C@@H](CCCN=C(N)N)C(=O)N[C@H]1CSSC[C@@H](C(=O)O)NC(=O)[C@H](Cc2cnc[nH]2)NC(=O)[C@H](C)NC(=O)[C@H](C)NC(=O)[C@H](CCCCN)NC1=O)C(C)C)C(C)C` [GLMDIFKVAVNKLLAAGMNKPRCKAAHC] the MIC [1] was 17.8 µM (≈ 53.4 µg/mL), the MIC [2] was 17.8 µM (≈ 53.4 µg/mL) and the MIC [3] was 9.35 µM (≈ 28 µg/mL). For the same compound, the MIC [4] was greater than 33.3 µM, the MIC [5] was 9.35 µM (≈ 28 µg/mL) and the MIC [6] was 9.35 µM (≈ 28 µg/mL). It also gave an MIC [7] of 17.8 µM (≈ 53.4 µg/mL) and an MIC [8] of 9.35 µM (≈ 28 µg/mL).
With `CC[C@H](C)[C@H](NC(=O)CNC(=O)CNC(=O)CNC(=O)CNC(=O)[C@H](Cc1c[nH]c2ccccc12)NC(=O)[C@@H](NC(=O)[C@H](Cc1cnc[nH]1)NC(=O)[C@H](CCSC)NC(=O)CNC(=O)[C@@H]1CCCN1C(=O)[C@H](C)NC(=O)[C@H](CC(=O)O)NC(=O)[C@@H]1CCCN1C(=O)[C@H](CC(C)C)NC(=O)[C@H](CCCCN)NC(=O)[C@@H](N)CCCN=C(N)N)[C@@H](C)O)C(=O)N[C@@H](CC(N)=O)C(=O)N[C@H](C(=O)N[C@@H](CC(C)C)C(=O)N[C@@H](CCC(N)=O)C(=O)N[C@@H](CCCCN)C(=O)N[C@@H](Cc1ccc(O)cc1)C(=O)N[C@@H](Cc1ccc(O)cc1)C(=O)N[C@@H](CS)C(=O)N[C@@H](CCCN=C(N)N)C(=O)N[C@H](C(=O)N[C@@H](CCCN=C(N)N)C(=O)NCC(=O)O)C(C)C)[C@@H](C)O` [RKLPDAPGMHTWGGGGINTLQKYYCRVRG] the MIC [9] was no less than 186 µM, the MIC [10] was no less than 186 µM and the MIC [11] was no less than 155 µM.
For `CC[C@H](C)[C@H](NC(=O)[C@H](CC(C)C)NC(=O)CNC(=O)CNC(=O)[C@H](CC(C)C)NC(=O)[C@@H](N)Cc1ccccc1)C(=O)N[C@@H](CCCCN)C(=O)N[C@@H](Cc1c[nH]c2ccccc12)C(=O)N[C@@H](Cc1c[nH]c2ccccc12)C(=O)N1CCC[C@H]1C(=O)N[C@@H](Cc1c[nH]c2ccccc12)C(=O)N[C@@H](CCCN=C(N)N)C(=O)N[C@@H](CCCN=C(N)N)C(N)=O` [FLGGLIKWWPWRR], the MIC [12] was 18.2 µM (≈ 31.2 µg/mL), the MIC (Klebsiella pneumoniae) was greater than 146 µM and the MIC (Citrobacter sp.) was no less than 146 µM. The MIC (Staphylococcus aureus) was 4.55 µM (≈ 7.81 µg/mL), the MIC [13] was 4.55 µM (≈ 7.81 µg/mL) and the MIC (Streptococcus pneumoniae) was 4.55 µM (≈ 7.81 µg/mL). For the same compound, the MIC (Enterobacter cloacae) was no less than 146 µM, the MIC [8] was 4.55 µM (≈ 7.81 µg/mL) and the MIC [14] was 18.2 µM (≈ 31.2 µg/mL).
Work on `CC[C@H](C)[C@H](NC(=O)CNC(=O)[C@H](CCCCN)NC(=O)[C@H](Cc1ccccc1)NC(=O)[C@H](CC(C)C)NC(=O)[C@H](CCCCN)NC(=O)[C@H](CCCCN)NC(=O)[C@H](C)NC(=O)[C@H](CCCCN)NC(=O)[C@H](CCCCN)NC(=O)[C@H](Cc1ccccc1)NC(=O)CNC(=O)[C@H](CCCCN)NC(=O)[C@H](C)NC(=O)[C@H](Cc1ccccc1)NC(=O)[C@@H](NC(=O)[C@H](CCCCN)NC(=O)[C@@H](NC(=O)[C@H](CC(C)C)NC(=O)[C@H](CCCCN)NC(=O)[C@@H](N)CCCCN)[C@@H](C)CC)C(C)C)C(=O)NCC(N)=O` [KKLIKVFAKGFKKAKKLFKGIG] yielded an MIC [15] of 0.807 µM (≈ 2 µg/mL), an MIC [16] of no less than 51.7 µM and an MIC [17] of 25.8 µM (≈ 64 µg/mL). For the same compound, the MIC [18] was 1.61 µM (≈ 4 µg/mL), the MIC [19] was 12.9 µM (≈ 32 µg/mL) and the MIC [6] was 0.101 µM (≈ 0.25 µg/mL). It also gave an MIC [13] of 51.7 µM (≈ 128 µg/mL), an MIC [20] of 103 µM (≈ 256 µg/mL) and an MIC [8] of 3.23 µM (≈ 8 µg/mL). The MIC [21] was 0.807 µM (≈ 2 µg/mL) and the MIC [22] was 25.8 µM (≈ 64 µg/mL).
`CC(C)C[C@H](NC(=O)[C@H](CC(C)C)NC(=O)[C@H](CS)NC(=O)[C@H](Cc1cnc[nH]1)NC(=O)[C@H](C)NC(=O)[C@H](C)N)C(=O)N[C@@H](CCCN=C(N)N)C(=O)NCC(=O)N[C@@H](CC(N)=O)C(=O)N[C@@H](CCCN=C(N)N)C(N)=O` [AAHCLLRGNR] showed an MIC (Enterococcus faecalis) of 30 µM, an MIC (Staphylococcus aureus MR) of 30 µM and an MIC [23] of 15 µM. The MIC [24] was 15 µM, the MIC (Enterococcus faecalis VR) was 30 µM and the MIC [25] was 30 µM. The MIC (Enterococcus faecium VR) was 30 µM, the MIC [26] was 30 µM and the MIC [27] was 30 µM. For the same compound, the MIC (Enterococcus faecium) was 30 µM and the MIC [28] was 30 µM.
In the case of `CC[C@H](C)[C@H](NC(=O)[C@H](Cc1c[nH]c2ccccc12)NC(=O)[C@H](CCCCN)NC(=O)[C@H](CC(C)C)NC(=O)[C@@H](NC(=O)[C@H](CCCCN)NC(=O)CNC(=O)[C@@H](NC(=O)[C@H](CCCCN)NC(=O)[C@H](CCCCN)NC(=O)[C@H](CC(C)C)NC(=O)[C@H](CCCN=C(N)N)NC(=O)[C@H](CCCCN)NC(=O)[C@H](CCCN=C(N)N)NC(=O)[C@@H](N)[C@@H](C)O)[C@@H](C)CC)C(C)C)C(N)=O` [TRKRLKKIGKVLKWI], the MIC [29] is reported as 2 µM (≈ 3.73 µg/mL), the MIC [30] is reported as 2 µM (≈ 3.73 µg/mL) and the MIC [3] is reported as 32 µM (≈ 59.7 µg/mL). It also gave an MIC [31] of 32 µM (≈ 59.7 µg/mL), an MIC [13] of 32 µM (≈ 59.7 µg/mL) and an MIC [32] of no less than 64 µM. For the same compound, the MIC (Candida albicans CA2761) was no less than 128 µM, the MIC [33] was 8 µM (≈ 14.9 µg/mL) and the MIC [8] was 8 µM (≈ 14.9 µg/mL). For the same compound, the MIC [34] was 8 µM (≈ 14.9 µg/mL), the MIC (Escherichia coli UB1005) was 4 µM (≈ 7.47 µg/mL) and the MIC (Escherichia coli EC183) was 2 µM (≈ 3.73 µg/mL).
